# Experimental data as given in patent publication US20250360167A1 (Keryx Biopharmaceuticals, Inc., priority 2013, published 2025).
# Columns and labels:
# serum calcium = test: Phase 3 trial (Example 1): serum calcium; type: in vivo, human
# Protocol: Serum phosphorus and calcium were performed at Screening (Visit 0); weekly during the Washout Period after Visit 1 (Week −2); at Visit 4 (Randomization Visit); at Visits 5 (Week 1), 6 (Week 2), 7 (Week 4), 8 (Week 6), 9 (Week 8), 10 (Week 10), 11 (Week 12), 12 (Week 16), 13 (Week 20), 14 (Week 24), 15 (Week 28), 16 (Week 32), 17 (Week 36), 18 (Week 40), 19 (Week 44), 20 (Week 48), and 21 (Week 52) of the 52-week Safety Assessment Period; and at Visits 22 (Week 53), 23 (Week 54), 24 (Week 55) and 25 (Week 56) of the Efficacy Assessment Period.
# These variables will be analyzed using LOCF methodology. ANCOVA will be employed. The model will include treatment (fixed effect), and Visit-4 baseline (covariate). An analysis using MMRM method will be conducted as a sensitivity analysis. The least square mean estimates of the treatment effects as well as the 2-sided 95% confidence intervals (CI) of the treatment effects will be derived.
# (§1) • 1. Change in serum calcium concentration at Weeks 12, 24, 36, 48, and 52 as compared to baseline (Visit 4). This variable will be analyzed using LOCF methodology. ANCOVA will be employed. The model will include treatment (fixed effect), and baseline (covariate). • 2. Change in ferritin, and TSAT at Weeks 12, 24, 36 and 48 as compared to baseline (Visit 4). This variable will be analyzed using LOCF methodology. ANCOVA will be employed. The model will include treatment (fixed effect), and baseline (covariate). • 3. Change in serum iron and TIBC at Weeks 12, 24, 36, 48, and 52 as compared to baseline (Visit 4). This variable will be analyzed using LOCF methodology. ANCOVA will be employed. The model will include treatment (fixed effect), and baseline (covariate). • 4. Change in Ca x P product at Weeks 12, 24, 36, 48, and 52 as compared to baseline (Visit 4). This variable will be analyzed using LOCF methodology. ANCOVA will be employed. The model will include treatment (fixed effect), and baseline (covariate). • 5. Change in iPTH at Weeks 12, 36, 52, and 56 as compared to baseline (Visit 4). This variable will be analyzed using LOCF methodology. ANCOVA will be employed. The model will include treatment (fixed effect), and baseline (covariate). • 6. Change in serum […], vitamin A, vitamin B-12, vitamin E, vitamin K and folic acid at Weeks 12, 36, and 52 as compared to baseline (Visit 4). This variable will be analyzed using LOCF methodology. ANCOVA will be employed. The model will include treatment (fixed effect), and baseline (covariate). • 7. Change in serum bicarbonate concentration at Weeks 12, 36, and 52 as compared to baseline (Visit 4). This variable will be analyzed using LOCF methodology. ANCOVA will be employed. The model will include treatment (fixed effect), and baseline (covariate). • 8. Change in IV iron intake at Weeks 12, 24, 36, 48, and 52 as compared to baseline (Visit 4). This variable will be analyzed using LOCF methodology. ANCOVA will be employed. The model will include treatment (fixed effect), and baseline (covariate). • 9. Change in the use of EPO (ESA) administered at Weeks 12, 24, 36, 48, and 52 as compared to baseline (Visit 4). This variable will be analyzed using LOCF methodology. ANCOVA will be employed. The model will include treatment (fixed effect), and baseline (covariate). • 10. Change in the use of Vitamin D supplementation (and its analogs) and Sensipar (cinacalcet) at Weeks 12, 24, 36, 48, and 52 as compared to baseline (Visit 4). This variable will be analyzed using LOCF methodology. ANCOVA will be employed. The model will include treatment (fixed effect), and baseline (covariate). • 11. Change in LDL, HDL, and triglycerides at Weeks 12, 36, and 52 as compared to baseline (Visit 4). This variable will be analyzed using LOCF methodology. ANCOVA will be employed. The model will include treatment (fixed effect), and baseline (covariate).
# [1] = system: transferrin saturation (TSAT); test: Phase 3 trial (Example 1): TSAT; type: in vivo, human; parameters: TSAT, Mean / TSAT, Median / TSAT, Change from Baseline, Mean / TSAT, Change from Baseline, Median / TSAT, LS Mean / TSAT, Treatment Differences, LS Mean (KRX-0502) − LS Mean (control): unit not given here; conditions: for TSAT, Mean / TSAT, Median / TSAT, LS Mean / TSAT, Change from Baseline, Mean / TSAT, Change from Baseline, Median / TSAT, Treatment Differences, LS Mean (KRX-0502) − LS Mean (control): Table 16
# Description: Iron studies including serum iron, ferritin, TSAT, and total iron-binding capacity were done at Screening (Visit 0); at the Randomization Visit (Visit 4); at Visits 7 (Week 4), 9 (Week 8), 11 (Week 12), 12 (Week 16), 13 (Week 20), 14 (Week 24), 15 (Week 28), 16 (Week 32), 17 (Week 36), 18 (Week 40), 19 (Week 44), 20 (Week 48), and 21 (Week 52) of the 52-week Safety Assessment Period; and at Visit 25 (Week 56) of the Efficacy Assessment Period.
# Change from baseline in TSAT at Week 52 as compared to baseline (Visit 4). This variable will be analyzed using LOCF methodology. ANCOVA will be employed. The model will include treatment (fixed effect), and baseline (covariate). A sensitivity analysis will be performed using MMRM method.
# as §1
# [2] = Day 0 Baseline, Safety Assessment Period
substance,measurement,setting,value
"iron (+3), x (1, 2, 3-propanetricarboxylic acid, 2-hydroxy-), y (H2O) [KRX-0502]","Calcium, Mean","serum calcium; Baseline, Table 12",8.843 mg/dL
same,"Calcium, Median","serum calcium; Baseline, Table 12",8.900 mg/dL
same,"Calcium, Week 12 Change from Baseline, Mean",serum calcium; Table 12,0.245 mg/dL
same,"Calcium, Week 12 Change from Baseline, Median",serum calcium; Table 12,0.200 mg/dL
same,"Calcium, LS Mean","serum calcium; Week 12, ANCOVA, Table 12",9.11 mg/dL
same,"Calcium, Mean","serum calcium; Week 12, Table 12",9.089 mg/dL
same,"Calcium, Median","serum calcium; Week 12, Table 12",9.100 mg/dL
same,"Calcium, Treatment Differences, LS Mean (KRX-0502) − LS Mean (Control)","serum calcium; Week 12, control = sevelamer carbonate as a single agent",-0.04 mg/dL
same,"Mean TSAT, LS Mean Difference from Active Control Group at Week 52","[1]; ANCOVA, Table D",10%
same,Mean TSAT,"[1]; Baseline (Day 0), Table D",31%
same,"TSAT, Mean",[1]; [2],31.0
same,"TSAT, Median",[1]; [2],29.5
same,"TSAT, LS Mean","[1]; Week 12, ANCOVA",40.17
same,Mean TSAT,"[1]; Week 12, LOCF, Table D",40%
same,"TSAT, Change from Baseline, Mean",[1]; Week 12,9.2
same,"TSAT, Change from Baseline, Median",[1]; Week 12,7.0
same,"TSAT, Mean",[1]; Week 12,40.2
same,"TSAT, Median",[1]; Week 12,37.0
same,"TSAT, Treatment Differences, LS Mean (KRX-0502) − LS Mean (control)",[1]; Week 12,8.74
same,"TSAT, LS Mean","[1]; Week 24, ANCOVA",39.90
same,Mean TSAT,"[1]; Week 24, LOCF, Table D",40%
same,"TSAT, Change from Baseline, Mean",[1]; Week 24,8.9
same,"TSAT, Change from Baseline, Median",[1]; Week 24,7.0
same,"TSAT, Mean",[1]; Week 24,39.9
same,"TSAT, Median",[1]; Week 24,38.0
same,"TSAT, Treatment Differences, LS Mean (KRX-0502) − LS Mean (control)",[1]; Week 24,8.28
same,"TSAT, LS Mean","[1]; Week 36, ANCOVA",39.80
same,Mean TSAT,"[1]; Week 36, LOCF, Table D",40%
same,"TSAT, Change from Baseline, Mean",[1]; Week 36,8.8
same,"TSAT, Change from Baseline, Median",[1]; Week 36,7.0
same,"TSAT, Mean",[1]; Week 36,39.8
same,"TSAT, Median",[1]; Week 36,37.0
same,"TSAT, Treatment Differences, LS Mean (KRX-0502) − LS Mean (control)",[1]; Week 36,9.44
same,"TSAT, LS Mean","[1]; Week 48, ANCOVA",40.60
same,Mean TSAT,"[1]; Week 48, LOCF, Table D",41%
same,"TSAT, Change from Baseline, Mean",[1]; Week 48,9.6
same,"TSAT, Change from Baseline, Median",[1]; Week 48,7.0
same,"TSAT, Mean",[1]; Week 48,40.6
same,"TSAT, Median",[1]; Week 48,38.0
same,"TSAT, Treatment Differences, LS Mean (KRX-0502) − LS Mean (control)",[1]; Week 48,11.17
same,"TSAT, LS Mean","[1]; Week 52, ANCOVA",39.35
same,Mean TSAT,"[1]; Week 52, LOCF, Table D",39%
same,"TSAT, Change from Baseline, Mean",[1]; Week 52,8.3
same,"TSAT, Change from Baseline, Median",[1]; Week 52,6.0
same,"TSAT, Mean",[1]; Week 52,39.4
same,"TSAT, Median",[1]; Week 52,35.0
same,"TSAT, Treatment Differences, LS Mean (KRX-0502) − LS Mean (control)",[1]; Week 52,9.66
same,"Mean TSAT, % Change from Baseline","[1]; Week 52, relative change, Table D",25.8%
same,"Mean TSAT, Change from Baseline at Week 52","[1]; absolute TSAT points, Table D",8%
